Reference: patent publication US8580918B2, “Peptidic GLP-2 agonists” (Ferring B.V., priority 2009, dated 2013)
Where a SMILES comes first, the peptide text is derived from it. [ ]: non-standard residue; d: D form. Dip = N[C@H](C(=O)O)C(c1ccccc1)c1ccccc1; Phe(4-NH2) = Nc1ccc(C[C@H](N)C(=O)O)cc1; 2Nal = N[C@@H](Cc1ccc2ccccc2c1)C(=O)O; hPhe = N[C@@H](CCc1ccccc1)C(=O)O; Cha = N[C@@H](CC1CCCCC1)C(=O)O; Nle = CCCC[C@H](N)C(=O)O

Assay: Pharmacokinetics in rats after intravenous bolus injection (systemic clearance)
Format: in vivo
Conditions: rat, plasma, 0.2 mg FB/kg, adult male Sprague-Dawley rats, i.v. bolus, dose 0.20 mg FB/kg, read-out: CL (ml/kg/min) Average
Description: Pharmacokinetic (PK) parameters of illustrative agonists of the GLP-2 receptor were determined in adult male Sprague-Dawley rats post intravenous bolus injection of compounds at doses of 0.1-1.0 mg/kg. Three or four doubly cannulated animals per compound were dosed via jugular vein, blood samples were collected at several intervals via carotid artery, and plasma samples were prepared from whole blood using K2EDTA as anticoagulant. Subsequent bioanalysis of samples included compound extraction and plasma concentration determination using standard LC/MS/MS methods. Analyte concentration was calculated from internal standard normalized peak area and calibration curves.
For calculation of PK parameters the compound concentration-time curves were analyzed with the noncompartmental data analysis software package PK Solutions 2.0™ (Summit Research Services, Montrose Colo.). The systemic clearance per kg body weight (CL) was calculated as the dose per kg body weight divided by the AUC extrapolated to infinity based on trapezoid calculation (AUC∞). Values reported are the arithmetic mean and standard deviation from the number of animals used for each compound as indicated on Table 3.

clearance [mL/kg/min] | Structure (SMILES)
0.5 | CCCC[C@H](NC(=O)[C@H](CCC(=O)O)NC(=O)[C@H](CC(=O)O)NC(=O)[C@H](CO)NC(=O)[C@H](Cc1ccccc1)NC(=O)[C@H](CO)NC(=O)CNC(=O)[C@H](CC(=O)O)NC(=O)CNC(=O)[C@@H](N)Cc1c[nH]cn1)C(=O)N[C@@H](CC(N)=O)C(=O)N[C@H](C(=O)N[C@H](C(=O)N[C@@H](CC(C)C)C(=O)N[C@@H](CC(=O)O)C(=O)N[C@@H](Cc1c[nH]c2ccccc12)C(=O)N[C@@H](CC(C)C)C(=O)N[C@@H](C)C(=O)N[C@@H](C)C(=O)N[C@@H](CCCNC(=N)N)C(=O)N[C@@H](CC(=O)O)C(=O)N[C@@H](Cc1ccccc1)C(=O)N[C@H](C(=O)N[C@@H](CC(N)=O)C(=O)N[C@@H](Cc1c[nH]c2ccccc12)C(=O)N[C@@H](CC(C)C)C(=O)N[C@H](C(=O)N[C@@H](CCC(N)=O)C(=O)N[C@H](C(=O)N[C@@H](CCCCN)C(N)=O)[C@@H](C)O)[C@@H](C)CC)[C@@H](C)CC)[C@@H](C)CC)[C@@H](C)O [Compound 22, [Gly2,Nle10,Trp16] hGLP-2 (1-30)-NH2] (H-HGDGSFSDE[Nle]NTILDWLAARDFINWLIQTK-NH2)
0.44 | CCCC[C@H](NC(=O)[C@H](CCC(=O)O)NC(=O)[C@H](CC(=O)O)NC(=O)[C@H](CO)NC(=O)[C@H](Cc1ccccc1)NC(=O)[C@H](CO)NC(=O)CNC(=O)[C@H](CC(=O)O)NC(=O)CNC(=O)[C@@H](N)Cc1c[nH]cn1)C(=O)N[C@@H](CC(N)=O)C(=O)N[C@H](C(=O)N[C@H](C(=O)N[C@@H](CC(C)C)C(=O)N[C@@H](CC(=O)O)C(=O)N[C@@H](CCc1ccccc1)C(=O)N[C@@H](CC(C)C)C(=O)N[C@@H](C)C(=O)N[C@@H](C)C(=O)N[C@@H](CCCNC(=N)N)C(=O)N[C@@H](CC(=O)O)C(=O)N[C@@H](Cc1ccccc1)C(=O)N[C@H](C(=O)N[C@@H](CC(N)=O)C(=O)N[C@@H](Cc1c[nH]c2ccccc12)C(=O)N[C@@H](CC(C)C)C(=O)N[C@H](C(=O)N[C@@H](CCC(N)=O)C(=O)N[C@H](C(=O)N[C@@H](CCCCN)C(N)=O)[C@@H](C)O)[C@@H](C)CC)[C@@H](C)CC)[C@@H](C)CC)[C@@H](C)O [Compound 28, [Gly2,Nle10,hPhe16] hGLP-2 (1-30)-NH2] (H-HGDGSFSDE[Nle]NTILD[hPhe]LAARDFINWLIQTK-NH2)

The next lines start with the compound.

Structure (SMILES) | clearance [mL/kg/min]
CCCC[C@H](NC(=O)[C@H](CCC(=O)O)NC(=O)[C@H](CC(=O)O)NC(=O)[C@H](CO)NC(=O)[C@H](Cc1ccccc1)NC(=O)[C@H](CO)NC(=O)CNC(=O)[C@H](CC(=O)O)NC(=O)CNC(=O)[C@@H](N)Cc1cnc[nH]1)C(=O)N[C@@H](CC(N)=O)C(=O)N[C@H](C(=O)N[C@H](C(=O)N[C@@H](CC(C)C)C(=O)N[C@@H](CC(=O)O)C(=O)N[C@@H](CC1CCCCC1)C(=O)N[C@@H](CC(C)C)C(=O)N[C@@H](C)C(=O)N[C@@H](C)C(=O)N[C@@H](CCCNC(=N)N)C(=O)N[C@@H](CC(=O)O)C(=O)N[C@@H](Cc1ccccc1)C(=O)N[C@H](C(=O)N[C@@H](CC(N)=O)C(=O)N[C@@H](Cc1c[nH]c2ccccc12)C(=O)N[C@@H](CC(C)C)C(=O)N[C@H](C(=O)N[C@@H](CCC(N)=O)C(=O)N[C@H](C(=O)N[C@@H](CCCCN)C(N)=O)[C@@H](C)O)[C@@H](C)CC)[C@@H](C)CC)[C@@H](C)CC)[C@@H](C)O [Compound 23, [Gly2,Nle10,Cha16] hGLP-2 (1-30)-NH2] (H-HGDGSFSDE[Nle]NTILD[Cha]LAARDFINWLIQTK-NH2) | 0.41
CCCC[C@H](NC(=O)[C@H](CCC(=O)O)NC(=O)[C@H](CC(=O)O)NC(=O)[C@H](CO)NC(=O)[C@H](Cc1ccccc1)NC(=O)[C@H](CO)NC(=O)CNC(=O)[C@H](CC(=O)O)NC(=O)CNC(=O)[C@@H](N)Cc1c[nH]cn1)C(=O)N[C@@H](CC(N)=O)C(=O)N[C@H](C(=O)N[C@H](C(=O)N[C@@H](CC(C)C)C(=O)N[C@@H](CC(=O)O)C(=O)N[C@@H](Cc1ccc(N)cc1)C(=O)N[C@@H](CC(C)C)C(=O)N[C@@H](C)C(=O)N[C@@H](C)C(=O)N[C@@H](CCCNC(=N)N)C(=O)N[C@@H](CC(=O)O)C(=O)N[C@@H](Cc1ccccc1)C(=O)N[C@H](C(=O)N[C@@H](CC(N)=O)C(=O)N[C@@H](Cc1c[nH]c2ccccc12)C(=O)N[C@@H](CC(C)C)C(=O)N[C@H](C(=O)N[C@@H](CCC(N)=O)C(=O)N[C@H](C(=O)N[C@@H](CCCCN)C(N)=O)[C@@H](C)O)[C@@H](C)CC)[C@@H](C)CC)[C@@H](C)CC)[C@@H](C)O [Compound 24, [Gly2,Nle10,Aph16] hGLP-2 (1-30)-NH2] (H-HGDGSFSDE[Nle]NTILD[Phe(4-NH2)]LAARDFINWLIQTK-NH2) | 1.9
CCCC[C@H](NC(=O)[C@H](CCC(=O)O)NC(=O)[C@H](CC(=O)O)NC(=O)[C@H](CO)NC(=O)[C@H](Cc1ccccc1)NC(=O)[C@H](CO)NC(=O)CNC(=O)[C@H](CC(=O)O)NC(=O)CNC(=O)[C@@H](N)Cc1c[nH]cn1)C(=O)N[C@@H](CC(N)=O)C(=O)N[C@H](C(=O)N[C@H](C(=O)N[C@@H](CC(C)C)C(=O)N[C@@H](CC(=O)O)C(=O)N[C@H](C(=O)N[C@@H](CC(C)C)C(=O)N[C@@H](C)C(=O)N[C@@H](C)C(=O)N[C@@H](CCCNC(=N)N)C(=O)N[C@@H](CC(=O)O)C(=O)N[C@@H](Cc1ccccc1)C(=O)N[C@H](C(=O)N[C@@H](CC(N)=O)C(=O)N[C@@H](Cc1c[nH]c2ccccc12)C(=O)N[C@@H](CC(C)C)C(=O)N[C@H](C(=O)N[C@@H](CCC(N)=O)C(=O)N[C@H](C(=O)N[C@@H](CCCCN)C(N)=O)[C@@H](C)O)[C@@H](C)CC)[C@@H](C)CC)C(c1ccccc1)c1ccccc1)[C@@H](C)CC)[C@@H](C)O [Compound 26, [Gly2,Nle10,Dip16] hGLP-2 (1-30)-NH2] (H-HGDGSFSDE[Nle]NTILD[Dip]LAARDFINWLIQTK-NH2) | 0.33

Same assay, conditions: rat, plasma, adult male Sprague-Dawley rats, i.v. bolus, dose 0.18 mg FB/kg, read-out: CL (ml/kg/min) Average

clearance [mL/kg/min] | Structure (SMILES)
0.28 | CCCC[C@H](NC(=O)[C@H](CCC(=O)O)NC(=O)[C@H](CC(=O)O)NC(=O)[C@H](CO)NC(=O)[C@H](Cc1ccccc1)NC(=O)[C@H](CO)NC(=O)CNC(=O)[C@H](CC(=O)O)NC(=O)CNC(=O)[C@@H](N)Cc1c[nH]cn1)C(=O)N[C@@H](CC(N)=O)C(=O)N[C@H](C(=O)N[C@H](C(=O)N[C@@H](CC(C)C)C(=O)N[C@@H](CC(=O)O)C(=O)N[C@@H](Cc1ccc2ccccc2c1)C(=O)N[C@@H](CC(C)C)C(=O)N[C@@H](C)C(=O)N[C@@H](C)C(=O)N[C@@H](CCCNC(=N)N)C(=O)N[C@@H](CC(=O)O)C(=O)N[C@@H](Cc1ccccc1)C(=O)N[C@H](C(=O)N[C@@H](CC(N)=O)C(=O)N[C@@H](Cc1c[nH]c2ccccc12)C(=O)N[C@@H](CC(C)C)C(=O)N[C@H](C(=O)N[C@@H](CCC(N)=O)C(=O)N[C@H](C(=O)N[C@@H](CCCCN)C(N)=O)[C@@H](C)O)[C@@H](C)CC)[C@@H](C)CC)[C@@H](C)CC)[C@@H](C)O [Compound 20, [Gly2,Nle10,2-Nal16] hGLP-2 (1-30)-NH2] (H-HGDGSFSDE[Nle]NTILD[2Nal]LAARDFINWLIQTK-NH2)
